In EP0338887B1, “Phosphonoalkylpurine derivatives” (MERRELL DOW PHARMACEUTICALS INC., priority 1988, dated 1989) one finds Ki and Km data, which are given here for ten molecules.

Where two headings read alike, the source gives them in different places.

Holding throughout (type): biochemical
Data set [1] addresses T1, purine nucleoside phosphorylase (PNP) (Rattus norvegicus, UniProt P85973).
T1 construct: Rat Erythrocytes; from tissue; host or cells: rat erythrocytes
T1 sequence (P85973 1-289): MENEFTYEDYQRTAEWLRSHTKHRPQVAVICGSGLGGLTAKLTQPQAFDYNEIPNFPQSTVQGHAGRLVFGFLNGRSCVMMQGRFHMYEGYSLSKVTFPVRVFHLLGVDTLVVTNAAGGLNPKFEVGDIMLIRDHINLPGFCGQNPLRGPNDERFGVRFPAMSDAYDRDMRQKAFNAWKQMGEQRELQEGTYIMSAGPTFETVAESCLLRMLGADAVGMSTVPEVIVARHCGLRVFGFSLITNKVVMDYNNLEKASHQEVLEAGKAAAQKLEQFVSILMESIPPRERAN
Description: PNP inhibition, coupled xanthine oxidase method of Kalckar (rat erythrocyte PNP).

In data set [2] the target is T2, purine nucleoside phosphorylase (PNP) (Bos taurus, UniProt P55859).
T2 construct: Calf Spleen; from tissue; host or cells: calf spleen
T2 sequence (P55859 1-289): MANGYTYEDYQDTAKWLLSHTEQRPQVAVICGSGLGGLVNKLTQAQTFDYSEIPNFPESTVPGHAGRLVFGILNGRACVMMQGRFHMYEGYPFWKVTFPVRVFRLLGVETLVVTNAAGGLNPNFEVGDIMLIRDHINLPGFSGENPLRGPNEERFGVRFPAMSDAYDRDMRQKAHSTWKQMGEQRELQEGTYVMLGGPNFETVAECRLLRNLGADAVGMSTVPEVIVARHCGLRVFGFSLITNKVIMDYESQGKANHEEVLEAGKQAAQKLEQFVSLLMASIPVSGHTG
Description: PNP inhibition, coupled xanthine oxidase method of Kalckar (calf spleen PNP). Here is the method:
(§1) Purine nucleoside phophorylase (PNP) inhibitory activity can be determined by the coupled xanthine oxidase method of Kalckar, using inosine as the substrate (H.M.Kalckar, J. Biol. Chem. 167, 429-443 (1947)). […] The Ki for representative members of the compounds of formula 1 are tabulated in table 1 and are compared to the KM values of the substrate inosine using PNP from various sources. […] The presence of 2'-deoxyguanosine (about 10 µM), a natural metabolite, appears to be important in in vitro activity.

Data set [3] concerns the target T3, purine nucleoside phosphorylase (PNP) (Homo sapiens, UniProt P00491).
T3 construct: Human Erythrocytes; from tissue; host or cells: human erythrocytes
T3 sequence (P00491 1-289): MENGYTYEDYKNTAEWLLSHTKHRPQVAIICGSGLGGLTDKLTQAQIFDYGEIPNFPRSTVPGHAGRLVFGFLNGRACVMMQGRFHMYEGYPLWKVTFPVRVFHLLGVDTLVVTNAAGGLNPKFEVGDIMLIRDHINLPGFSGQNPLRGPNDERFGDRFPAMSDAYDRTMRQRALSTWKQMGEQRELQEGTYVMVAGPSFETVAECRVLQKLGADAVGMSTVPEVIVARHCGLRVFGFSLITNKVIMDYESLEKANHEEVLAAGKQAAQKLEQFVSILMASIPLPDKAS
Put plainly: PNP inhibition, coupled xanthine oxidase method of Kalckar (human erythrocyte PNP).

Substrate in data set [4]: OC[C@H]1O[C@@H](n2cnc3c(O)ncnc32)[C@H](O)[C@@H]1O
The description is as above. Particulars: other: substrate KM for comparison; pH 7.4.

Substrate in data set [5]: OC[C@H]1O[C@@H](n2cnc3c(O)ncnc32)[C@H](O)[C@@H]1O
Put plainly: PNP inhibition, coupled xanthine oxidase method of Kalckar (calf spleen PNP). The conditions noted are these: other: substrate KM for comparison; pH 7.4. The protocol:
as §1

Substrate in data set [6]: OC[C@H]1O[C@@H](n2cnc3c(O)ncnc32)[C@H](O)[C@@H]1O
Description: PNP inhibition, coupled xanthine oxidase method of Kalckar (rat erythrocyte PNP). Particulars: other: substrate KM for comparison; pH 7.4.

As to `Nc1nc2c(ncn2CCCCC(F)(F)P(=O)(O)O)c(=O)[nH]1` [9-(5-phosphono-5,5-difluoropentyl)guanine], the Ki in data set [1] turned out to be 3.5e-08 M.

As to `Nc1nc2c(ncn2CCCCCC(F)(F)P(=O)(O)O)c(=O)[nH]1` [9-(6-phosphono-6,6-difluorohexyl)guanine], the Ki in data set [2] was determined as 3.2e-07 M; in data set [1] it was 1.8e-07 M; in data set [3] it was 2.8e-07 M.

For the molecule `CCOP(=O)(O)C(F)(F)CCCCCCn1cnc2c(=O)[nH]c(N)nc21` [9-(7-phosphono-7,7-difluoroheptyl)guanine, ethyl ester], the Ki in data set [2] (apparent dissociation constant, 1 mM inorganic phosphate, 0.1 M HEPES buffer (pH 7.4), inosine 0.05 mM to 0.15 mM as substrate, read-out: Ki (M) PNP SOURCE Calf Spleen) is 3.3e-06 M; in data set [1] it was 2.8e-07 M; in data set [3] (apparent dissociation constant, 1 mM inorganic phosphate, 0.1 M HEPES buffer (pH 7.4), inosine 0.05 mM to 0.15 mM as substrate, read-out: Ki (M) PNP SOURCE Human Erythrocytes), 8e-07 M.

Take `Nc1nc2c(ncn2CCCCCCC(F)(F)P(=O)(O)O)c(=O)[nH]1` [9-(7-phosphono-7,7-difluoroheptyl)guanine]: the Ki in data set [2] was determined as 1.5e-07 M; in data set [1], 9.6e-09 M; in data set [3] it was 8e-08 M.

Take `O=c1[nH]cnc2c1ncn2CCCCCCC(F)(F)P(=O)(O)O` [9-(7-phosphono-7,7-difluoroheptyl)hypoxanthine]: the Ki is 2.2e-06 M in data set [2], 1.6e-07 M in data set [1] and 1e-07 M in data set [3].

For `Nc1nc(O)c2ncn(CCCCCCCP(=O)(O)O)c2n1` [9-(7-phosphono-heptyl)guanine], the Ki in data set [2] was determined as 1.2e-06 M; in data set [1] (apparent dissociation constant, 1 mM inorganic phosphate, 0.1 M HEPES buffer (pH 7.4), inosine 0.05 mM to 0.15 mM as substrate, read-out: Ki (M) PNP SOURCE Rat Erythrocytes), 7.5e-08 M; in data set [3], 6.8e-07 M.

Turning to `Nc1nc2c(ncn2CCCCCCCC(F)(F)P(=O)(O)O)c(=O)[nH]1` [9-(8-phosphono-8,8-difluorooctyl)guanine], the Ki in data set [2] is 6.2e-07 M; in data set [1], 4.6e-09 M; in data set [3] it was 1.9e-07 M.

B1: purine nucleoside phosphorylase (PNP) (Homo sapiens) (protein)
chain: MENGYTYEDYKNTAEWLLSHTKHRPQVAIICGSGLGGLTDKLTQAQIFDYGEIPNFPRSTVPGHAGRLVFGFLNGRACVMMQGRFHMYEGYPLWKVTFPVRVFHLLGVDTLVVTNAAGGLNPKFEVGDIMLIRDHINLPGFSGQNPLRGPNDERFGDRFPAMSDAYDRTMRQRALSTWKQMGEQRELQEGTYVMVAGPSFETVAECRVLQKLGADAVGMSTVPEVIVARHCGLRVFGFSLITNKVIMDYESLEKANHEEVLAAGKQAAQKLEQFVSILMASIPLPDKAS
notes: Human Erythrocytes; from tissue; host or cells: human erythrocytes
Consider B1, for which, in data set [4], the Km is recorded as 70 x 10⁻⁶ M.

B2: purine nucleoside phosphorylase (PNP) (Bos taurus) (protein)
chain: MANGYTYEDYQDTAKWLLSHTEQRPQVAVICGSGLGGLVNKLTQAQTFDYSEIPNFPESTVPGHAGRLVFGILNGRACVMMQGRFHMYEGYPFWKVTFPVRVFRLLGVETLVVTNAAGGLNPNFEVGDIMLIRDHINLPGFSGENPLRGPNEERFGVRFPAMSDAYDRDMRQKAHSTWKQMGEQRELQEGTYVMLGGPNFETVAECRLLRNLGADAVGMSTVPEVIVARHCGLRVFGFSLITNKVIMDYESQGKANHEEVLEAGKQAAQKLEQFVSLLMASIPVSGHTG
notes: Calf Spleen; from tissue; host or cells: calf spleen
Consider B2, for which, in data set [5], the Km amounted to 28 x 10⁻⁶ M.

B3: purine nucleoside phosphorylase (PNP) (Rattus norvegicus) (protein)
chain: MENEFTYEDYQRTAEWLRSHTKHRPQVAVICGSGLGGLTAKLTQPQAFDYNEIPNFPQSTVQGHAGRLVFGFLNGRSCVMMQGRFHMYEGYSLSKVTFPVRVFHLLGVDTLVVTNAAGGLNPKFEVGDIMLIRDHINLPGFCGQNPLRGPNDERFGVRFPAMSDAYDRDMRQKAFNAWKQMGEQRELQEGTYIMSAGPTFETVAESCLLRMLGADAVGMSTVPEVIVARHCGLRVFGFSLITNKVVMDYNNLEKASHQEVLEAGKAAAQKLEQFVSILMESIPPRERAN
notes: Rat Erythrocytes; from tissue; host or cells: rat erythrocytes
As for B3, the Km in data set [6] amounted to 80 x 10⁻⁶ M.
